In patent US9624167B2, “N-(4-hydroxy-4-methyl-cyclohexyl)-4-phenyl-benzenesulfonamides and N-(4-hydroxy-4-methyl-cyclohexyl)-4-(2-pyridyl)benzenesulfonamides and their therapeutic use” (PIMCO 2664 LIMITED, priority 2013, dated 2017):
Like-named read-outs stand apart in the source and are kept apart here.

Key:
[1] = Rodent pharmacokinetics study; format: in vivo, Sprague-Dawley rats; settings: rat, dosed at 2 mg/kg intravenously (†)
[2] = system: collagen-induced arthritis; test: Mouse Collagen-Induced Arthritis; format: in vivo, DBA/1j mice; settings: 10 mg/kg/day oral gavage, once daily for 14 days, arthritic index vs control
Experimental: Seven- to eight-week-old male DBA/1j mice were used for all procedures. Animals were housed in groups of 10, and were maintained at 21° C.±2° C. on a 12-hour light/dark cycle with food and water ad libitum. […]. All mice were immunised subcutaneously with 200 μg of bovine type II collagen in CFA. 21 days later, all mice were immunised subcutaneously with 100 μg of bovine type II collagen in IFA.
The mice started to develop signs and symptoms of arthritis following the ‘booster’ immunisation.
For macroscopic assessment of arthritis, the following signs were monitored in each paw of each mouse three times per week and summed to generate the Arthritic Index (AI) (the maximum AI for one animal is 16): • 0=no visible effects of arthritis. • 1=oedema and/or erythema of 1 digit. • 2=oedema and/or erythema of 2 digits. • 3=oedema and/or erythema of more than 2 digits. • 4=severe arthritis of entire paw and digits.
Animals were sorted into treatment groups with a mean arthritic index of 2.5 and then dosed once daily for 14 days with compound by oral gavage for test compounds, or by subcutaneous injection at a dose of 10 mg/kg for the positive control, etanercept. After completion of the experiment, the mice were sacrificed.
The data were analysed by generating an average of the arthritic index across each treatment group. The mean arthritic index was then compared to the arthritic index of control (untreated) animals using the following formula to generate a percentage inhibition of disease.

[3] = system: IL-6 release from LPS-stimulated Thp1 macrophages; test: Thp1 Macrophage IL-6 Release Assay; format: cell-based; settings: Homo sapiens
Source text: Anti-inflammatory effects were further characterised by assessing the production of interleukin-6 (IL-6) by human Thp-1 derived macrophages stimulated with a pro-inflammatory stimulus bacterial lipopolysaccharide (LPS). LPS acts with a cell-surface receptor, Toll-like receptor-4 to activate the NFκB and IRF signalling pathways to produce IL-6. The reduction of IL—in this stimulated assay is indicative of anti-inflammatory effects with utility in the treatment of conditions in which IL-6 production is aberrant.
In vitro potency of test compounds in human cells was determined by incubation with Thp1 macrophages and subsequent stimulation with an inflammatory stimulus (bacterial lipopolysaccharide (LPS)) followed by measurement of cellular interleukin-6 (IL-6) release.
Thp1 cells were plated at a concentration of 1×10^5 cells/well or 1.7×10^5 cells/well in 500 μL or 150 μL RPMI complete media containing 1% penicillin-streptomycin and 10% heat inactivated foetal bovine serum in 24-well plates or 96-well plates, respectively and allowed to adhere overnight. The following day, the cells were stimulated with phorbol myristic acid (PMA) at a final concentration of 100 nM (24-well plates) or 200 nM (96-well plates) to induce differentiation and maintained for up to 8 days with a medium change at 5 days if cells were cultured to 8 days. Test compounds were prepared as […] solutions in DMSO and then serially diluted in DMSO prior to dilution in culture medium.
The diluted compounds were added to the cultures 1 hour prior to stimulation with 100 ng/mL LPS. Following a 16 or 18 hour incubation at 37° C./5% CO2, the cell culture medium was collected and assayed for human IL-6 levels using the human IL-6 duo-set ELISA kit (R&D Systems). The average results for each test compound (n=3) were expressed as a percent (%) of the average control value. The average values across the concentrations tested were then plotted and the IC50 for the inhibition of IL-6 was calculated by fitting the data to a 4-parameter IC50 equation using software from Grafit version 6.0.12 (Erithacus Software Ltd., by Dr Robin Leatherbarrow) or GraphPad Prism version 5.04 for Windows (GraphPad Software, La Jolla, Calif., USA, www.qraphpad.com). Each experiment was repeated twice and the data are presented as the mean IC50 from both experiments.

hERG ion channel = molecular target: T1, hERG ion channel (Homo sapiens, UniProt Q12809); test: hERG Ion Channel Assay (Q-patch, hERG-CHO cells); format: cell-based; settings: hERG tail current, hERG-CHO cells, Q-patch; read-out: IC50 (1)
T1 construct: expressed in transfected cells; host or cells: Chinese Hamster Ovary cells (hERG-CHO), stably transfected
T1 sequence (Q12809 whole entry): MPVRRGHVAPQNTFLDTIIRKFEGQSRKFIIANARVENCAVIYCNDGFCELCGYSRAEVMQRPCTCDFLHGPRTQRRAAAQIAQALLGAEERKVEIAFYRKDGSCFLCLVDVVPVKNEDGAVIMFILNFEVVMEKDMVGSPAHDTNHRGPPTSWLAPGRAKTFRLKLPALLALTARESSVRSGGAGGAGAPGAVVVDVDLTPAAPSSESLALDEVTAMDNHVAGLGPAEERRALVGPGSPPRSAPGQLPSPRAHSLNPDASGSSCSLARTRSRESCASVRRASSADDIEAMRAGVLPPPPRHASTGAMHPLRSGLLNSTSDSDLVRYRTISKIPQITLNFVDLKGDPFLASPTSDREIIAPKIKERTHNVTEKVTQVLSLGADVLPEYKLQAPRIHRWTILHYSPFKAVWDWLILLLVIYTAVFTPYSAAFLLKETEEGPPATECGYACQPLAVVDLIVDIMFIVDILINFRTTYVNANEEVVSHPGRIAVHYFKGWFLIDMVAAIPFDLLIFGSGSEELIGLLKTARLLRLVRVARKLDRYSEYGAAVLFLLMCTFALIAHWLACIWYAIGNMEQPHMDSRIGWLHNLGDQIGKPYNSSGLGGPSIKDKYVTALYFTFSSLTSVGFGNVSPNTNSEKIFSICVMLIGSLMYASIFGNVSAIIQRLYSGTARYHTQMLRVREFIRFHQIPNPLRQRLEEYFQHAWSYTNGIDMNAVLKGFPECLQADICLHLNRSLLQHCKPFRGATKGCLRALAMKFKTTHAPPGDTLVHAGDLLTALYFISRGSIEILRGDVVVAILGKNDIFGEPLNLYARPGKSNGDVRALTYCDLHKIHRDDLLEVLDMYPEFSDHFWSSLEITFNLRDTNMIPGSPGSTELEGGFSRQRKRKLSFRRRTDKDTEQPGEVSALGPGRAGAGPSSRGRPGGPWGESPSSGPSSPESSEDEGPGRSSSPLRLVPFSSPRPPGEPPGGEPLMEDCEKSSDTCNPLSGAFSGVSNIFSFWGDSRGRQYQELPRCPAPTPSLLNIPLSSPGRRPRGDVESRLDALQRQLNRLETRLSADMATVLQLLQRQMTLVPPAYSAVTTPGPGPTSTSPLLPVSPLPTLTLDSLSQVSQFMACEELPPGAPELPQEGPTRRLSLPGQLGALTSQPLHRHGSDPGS
Outline: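 Automated whole-cell Q-patch on hERG-CHO cells (held at 30° C for 24–48 h beforehand), −80 mV holding, +20 mV for 2 s then −40 mV for 1 s to elicit tail current every 5 s. Cumulative rising concentrations, 5 min each; percent tail-current inhibition fitted to three-parameter logistic for IC50.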

C[C@]1(O)CC[C@H](NS(=O)(=O)c2ccc(-c3ncc(F)cc3F)cc2)CC1 [HMC-N-02-A, 4-(3,5-Difluoropyridin-2-yl)-N-((1r,4r)-4-hydroxy-4-methylcyclohexyl)benzenesulfonamide]
i.v. AUC [1]: 3053 ng·min/mL
% inhibition of disease [2]: 36%
IC50 ([3]; THP-1, 1 × 10^5 cells/well, 24-well plates, 8 days, 6 point curve, IL6 measured 16 hours after LPS, read-out: IC50 (1)): 150 nM
IC50 ([3]; THP-1, 1.7 × 10^5 cells/well, 96-well plates, 3 days, 9 point curve, IL6 measured 18 hours after LPS, read-out: IC50 (2)): 290 nM
IC50 (hERG ion channel): 231 µM
